These are literature values, as cited in patent US20160074320A1, “PHARMACEUTICAL COMPOSTIONS COMPRISING KISSPEPTIN OR DERIVATIVES THEREOF” (OURO FINO SAÚDE ANIMAL LTDA, priority 2013, published 2016).

Ends that are not written are not given here.

Series [1] relates to sheep. The settings on record: Kp-10 applied 30 h after removal of intra-vaginal progesterone device (CIDR).
In series [2] the test system is sheep. The settings on record: sheep in anestrus, low and sustained (30 to 48 h) doses IV.

With “Kp-10: 10 amino acid fragment cleaved from kisspeptin, the 145 amino acid protein encoded by Kiss-1 gene (YNWNSFGLRF; ends and bridges not checked; UniProt Q15726 112-121, looked up, fragment)”, the “peak of LH, time after removal of CIDR” value in the series on sheep [1] is about 32 h. For the same substance, in the series on sheep [2], the “ovulation, share of animals” value was “more than 80%”. In addition, in the series with prepubertal heifers (IV administration), the hormone release result is “induces the release of LH and growth hormone (GH)”. The “LH pulses (Redmond and collaborators)” value in the series with prepubertal heifers (IV injections) is “increase of frequency and amplitude of the pulses of LH”.
